Tests used:
liver = details: classification of the substance (Cr+/Cr−); cited from earlier work
[1] = classification of the substance (M+/M−); cited from earlier work
[2] = tested on: mRNA expressed from the genes (A) to (D) in rat liver; assay: Behavior of genes (mRNA expression level, oligo-DNA microarray) in rat liver after 28-day oral administration; type: in vivo; details: for Behavior of gene caused by administration of chemical substance, Gene No. 4846 / Behavior of gene caused by administration of chemical substance, Gene No. 2026 / Behavior of gene caused by administration of chemical substance, Gene No. 4218 / Behavior of gene caused by administration of chemical substance, Gene No. 6182 / Behavior of gene caused by administration of chemical substance, Gene No. 5600: gene group (A); for Behavior of gene caused by administration of chemical substance, Gene No. 4846: Unigene No. Rn.144554; for Behavior of gene caused by administration of chemical substance, Gene No. 2026 / Behavior of gene caused by administration of chemical substance, Gene No. 4218: Unigene No. Rn.167075; for Behavior of gene caused by administration of chemical substance, Gene No. 6182: Unigene No. Rn.5834; for Behavior of gene caused by administration of chemical substance, Gene No. 5600: Unigene No. Rn.9836; for Behavior of gene caused by administration of chemical substance, Gene No. 1494 / Behavior of gene caused by administration of chemical substance, Gene No. 2045 / Behavior of gene caused by administration of chemical substance, Gene No. 2203: gene group (B); for Behavior of gene caused by administration of chemical substance, Gene No. 1494: Unigene No. Rn.1430; for Behavior of gene caused by administration of chemical substance, Gene No. 2045: Unigene No. Rn.19329; for Behavior of gene caused by administration of chemical substance, Gene No. 2203: Unigene No. Rn.21240; for Behavior of gene caused by administration of chemical substance, Gene No. 533 / Behavior of gene caused by administration of chemical substance, Gene No. 725 / Behavior of gene caused by administration of chemical substance, Gene No. 1163 / Behavior of gene caused by administration of chemical substance, Gene No. 4973 / Behavior of gene caused by administration of chemical substance, Gene No. 4095 / Behavior of gene caused by administration of chemical substance, Gene No. 1334 / Behavior of gene caused by administration of chemical substance, Gene No. 6620 / Behavior of gene caused by administration of chemical substance, Gene No. 6303 / Behavior of gene caused by administration of chemical substance, Gene No. 5878 / Behavior of gene caused by administration of chemical substance, Gene No. 1131 / Behavior of gene caused by administration of chemical substance, Gene No. 1562 / Behavior of gene caused by administration of chemical substance, Gene No. 1741 / Behavior of gene caused by administration of chemical substance, Gene No. 893 / Behavior of gene caused by administration of chemical substance, Gene No. 6026 / Behavior of gene caused by administration of chemical substance, Gene No. 154 / Behavior of gene caused by administration of chemical substance, Gene No. 1993 / Behavior of gene caused by administration of chemical substance, Gene No. 813 / Behavior of gene caused by administration of chemical substance, Gene No. 2494 / Behavior of gene caused by administration of chemical substance, Gene No. 2546 / Behavior of gene caused by administration of chemical substance, Gene No. 3776 / Behavior of gene caused by administration of chemical substance, Gene No. 3929 / Behavior of gene caused by administration of chemical substance, Gene No. 1119 / Behavior of gene caused by administration of chemical substance, Gene No. 6742 / Behavior of gene caused by administration of chemical substance, Gene No. 5634: gene group (C); for Behavior of gene caused by administration of chemical substance, Gene No. 533: Unigene No. Rn.106184; for Behavior of gene caused by administration of chemical substance, Gene No. 725: Unigene No. Rn.108075; for Behavior of gene caused by administration of chemical substance, Gene No. 1163: Unigene No. Rn.11766; for Behavior of gene caused by administration of chemical substance, Gene No. 4973: Unigene No. Rn.118529; for Behavior of gene caused by administration of chemical substance, Gene No. 4095: Unigene No. Rn.119024; for Behavior of gene caused by administration of chemical substance, Gene No. 1334 / Behavior of gene caused by administration of chemical substance, Gene No. 6620: Unigene No. Rn.120914; for Behavior of gene caused by administration of chemical substance, Gene No. 6303: Unigene No. Rn.123063; for Behavior of gene caused by administration of chemical substance, Gene No. 5878: Unigene No. Rn.143213; for Behavior of gene caused by administration of chemical substance, Gene No. 1131: Unigene No. Rn.144946; for Behavior of gene caused by administration of chemical substance, Gene No. 1562: Unigene No. Rn.14744; for Behavior of gene caused by administration of chemical substance, Gene No. 1741: Unigene No. Rn.1647; for Behavior of gene caused by administration of chemical substance, Gene No. 893: Unigene No. Rn.164817; for Behavior of gene caused by administration of chemical substance, Gene No. 6026: Unigene No. Rn.167685; for Behavior of gene caused by administration of chemical substance, Gene No. 154: Unigene No. Rn.185941; for Behavior of gene caused by administration of chemical substance, Gene No. 1993: Unigene No. Rn.18728; for Behavior of gene caused by administration of chemical substance, Gene No. 813: Unigene No. Rn.201760; for Behavior of gene caused by administration of chemical substance, Gene No. 2494: Unigene No. Rn.23969; for Behavior of gene caused by administration of chemical substance, Gene No. 2546: Unigene No. Rn.24561; for Behavior of gene caused by administration of chemical substance, Gene No. 3776: Unigene No. Rn.43232; for Behavior of gene caused by administration of chemical substance, Gene No. 3929: Unigene No. Rn.4620; for Behavior of gene caused by administration of chemical substance, Gene No. 1119: Unigene No. Rn.9757; for Behavior of gene caused by administration of chemical substance, Gene No. 6742: Unigene No. Rn.9779; for Behavior of gene caused by administration of chemical substance, Gene No. 5634: Unigene No. Rn.9862; for Behavior of gene caused by administration of chemical substance, Gene No. 5726: gene group (D), Unigene No. Rn.9939
Method in brief: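 Male F344 SPF rats, 5 weeks old, four per group, received carcinogens, non-carcinogens or solvent vehicle by oral gavage once daily for 28 days. Liver total RNA was then extracted. Changes of ≥1.5-fold or ≤1/1.5 versus vehicle control, in a consistent direction across carcinogens, counted as significant.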

rodent = details: classification of the substance (C+/C−); cited from earlier work

ClC(Cl)(Cl)Cl [TS003, Carbon tetrachloride]
Liver carcinogenicity (liver): Cr+
Mutagenicity by Ames test [1]: M−
Behavior of gene caused by administration of chemical substance, Gene No. 4846 [2]: +
Behavior of gene caused by administration of chemical substance, Gene No. 2026 [2]: +
Behavior of gene caused by administration of chemical substance, Gene No. 4218 [2]: +
Behavior of gene caused by administration of chemical substance, Gene No. 6182 [2]: +
Behavior of gene caused by administration of chemical substance, Gene No. 5600 [2]: +
Behavior of gene caused by administration of chemical substance, Gene No. 1494 [2]: +
Behavior of gene caused by administration of chemical substance, Gene No. 2045 [2]: +
Behavior of gene caused by administration of chemical substance, Gene No. 2203 [2]: +
Behavior of gene caused by administration of chemical substance, Gene No. 533 [2]: +
Behavior of gene caused by administration of chemical substance, Gene No. 725 [2]: −
Behavior of gene caused by administration of chemical substance, Gene No. 1163 [2]: +
Behavior of gene caused by administration of chemical substance, Gene No. 4973 [2]: +
Behavior of gene caused by administration of chemical substance, Gene No. 4095 [2]: −
Behavior of gene caused by administration of chemical substance, Gene No. 1334 [2]: −
Behavior of gene caused by administration of chemical substance, Gene No. 6620 [2]: −
Behavior of gene caused by administration of chemical substance, Gene No. 6303 [2]: −
Behavior of gene caused by administration of chemical substance, Gene No. 5878 [2]: −
Behavior of gene caused by administration of chemical substance, Gene No. 1131 [2]: −
Behavior of gene caused by administration of chemical substance, Gene No. 1562 [2]: −
Behavior of gene caused by administration of chemical substance, Gene No. 1741 [2]: +
Behavior of gene caused by administration of chemical substance, Gene No. 893 [2]: −
Behavior of gene caused by administration of chemical substance, Gene No. 6026 [2]: −
Behavior of gene caused by administration of chemical substance, Gene No. 154 [2]: +
Behavior of gene caused by administration of chemical substance, Gene No. 1993 [2]: −
Behavior of gene caused by administration of chemical substance, Gene No. 813 [2]: −
Behavior of gene caused by administration of chemical substance, Gene No. 2494 [2]: −
Behavior of gene caused by administration of chemical substance, Gene No. 2546 [2]: −
Behavior of gene caused by administration of chemical substance, Gene No. 3776 [2]: −
Behavior of gene caused by administration of chemical substance, Gene No. 3929 [2]: −
Behavior of gene caused by administration of chemical substance, Gene No. 1119 [2]: −
Behavior of gene caused by administration of chemical substance, Gene No. 6742 [2]: −
Behavior of gene caused by administration of chemical substance, Gene No. 5634 [2]: −
Behavior of gene caused by administration of chemical substance, Gene No. 5726 [2]: −
Carcinogenicity (rodent): C+

OC[C@@H](O)[C@@H](O)[C@H](O)[C@H](O)CO [TS009, D-Mannitol]
Liver carcinogenicity (liver): Cr−
Mutagenicity by Ames test [1]: M−
Behavior of gene caused by administration of chemical substance, Gene No. 4846 [2]: −
Behavior of gene caused by administration of chemical substance, Gene No. 2026 [2]: −
Behavior of gene caused by administration of chemical substance, Gene No. 4218 [2]: −
Behavior of gene caused by administration of chemical substance, Gene No. 6182 [2]: −
Behavior of gene caused by administration of chemical substance, Gene No. 5600 [2]: −
Behavior of gene caused by administration of chemical substance, Gene No. 1494 [2]: −
Behavior of gene caused by administration of chemical substance, Gene No. 2045 [2]: −
Behavior of gene caused by administration of chemical substance, Gene No. 2203 [2]: −
Behavior of gene caused by administration of chemical substance, Gene No. 533 [2]: −
Behavior of gene caused by administration of chemical substance, Gene No. 725 [2]: −
Behavior of gene caused by administration of chemical substance, Gene No. 1163 [2]: −
Behavior of gene caused by administration of chemical substance, Gene No. 4973 [2]: −
Behavior of gene caused by administration of chemical substance, Gene No. 4095 [2]: −
Behavior of gene caused by administration of chemical substance, Gene No. 1334 [2]: −
Behavior of gene caused by administration of chemical substance, Gene No. 6620 [2]: −
Behavior of gene caused by administration of chemical substance, Gene No. 6303 [2]: −
Behavior of gene caused by administration of chemical substance, Gene No. 5878 [2]: −
Behavior of gene caused by administration of chemical substance, Gene No. 1131 [2]: −
Behavior of gene caused by administration of chemical substance, Gene No. 1562 [2]: −
Behavior of gene caused by administration of chemical substance, Gene No. 1741 [2]: −
Behavior of gene caused by administration of chemical substance, Gene No. 893 [2]: −
Behavior of gene caused by administration of chemical substance, Gene No. 6026 [2]: −
Behavior of gene caused by administration of chemical substance, Gene No. 154 [2]: −
Behavior of gene caused by administration of chemical substance, Gene No. 1993 [2]: −
Behavior of gene caused by administration of chemical substance, Gene No. 813 [2]: −
Behavior of gene caused by administration of chemical substance, Gene No. 2494 [2]: −
Behavior of gene caused by administration of chemical substance, Gene No. 2546 [2]: −
Behavior of gene caused by administration of chemical substance, Gene No. 3776 [2]: −
Behavior of gene caused by administration of chemical substance, Gene No. 3929 [2]: −
Behavior of gene caused by administration of chemical substance, Gene No. 1119 [2]: −
Behavior of gene caused by administration of chemical substance, Gene No. 6742 [2]: −
Behavior of gene caused by administration of chemical substance, Gene No. 5634 [2]: −
Behavior of gene caused by administration of chemical substance, Gene No. 5726 [2]: −
Carcinogenicity (rodent): C−

From patent US20110039721A1, “METHOD FOR PREDICTION ABOUT CARCINOGENICITY OF SUBSTANCE IN RODENT” (Chemicals Evaluation and Research Institute, priority 2007, published 2011)
